Data published in ChEMBL document CHEMBL5260814, “Design strategies in the prodrugs of HIV-1 protease inhibitors to improve the pharmaceutical properties” (Eur J Med Chem, 2017).
In brackets after ≈: the same amount, converted by molar mass. One block for each molecule: values may come before it.

Tests used:
[1] = Cmax in rat in presence of Ritonavir; format: ADME; conditions: in vivo
[2] = AUC in rat in presence of Ritonavir; format: ADME; set-up: concentration or dose not given beside the values; conditions: in vivo
[3] = Water solubility of compound; format: physicochemical
[4] = Stability of compound in PBS buffer at pH 7.3 assessed as half life; format: physicochemical
[5] = Metabolic stability in rat liver microsome assessed as half life […]; format: ADME; conditions: liver microsomes
[6] = Solubility of compound; format: physicochemical
[7] = Stability of compound in PBS at pH 4.9 assessed as half life; format: physicochemical
[8] = Stability of compound in PBS at pH 5.5 assessed as half life; format: physicochemical
[9] = Stability of compound in PBS at pH 7.4 assessed as half life; format: physicochemical

Compound: Cc1nc(COc2ccc(C[C@H](NC(=O)O[C@H]3CO[C@H]4OCC[C@H]43)[C@H](O)CN(CC(C)C)S(=O)(=O)c3ccc4c(c3)OCO4)cc2)cs1 [BRECANAVIR]
Cmax [1]: 696 ng/mL
AUC [2]: 1960 ng·h/mL

Compound: Cc1ccccc1OCC(=O)N[C@@H](Cc1ccccc1)[C@H](O)C(=O)N1CSC[C@H]1C(=O)NC(C)(C)C
solubility [3]: 0.042 mg/mL (≈ 0.0818 mM)

Compound: Cc1nc(COc2ccc(C[C@H](NC(=O)O[C@H]3CO[C@H]4OCC[C@H]43)[C@@H](CN(CC(C)C)S(=O)(=O)c3ccc4c(c3)OCO4)OC(=O)COCC(=O)Nc3ccn[nH]3)cc2)cs1
Cmax ([1]; read-out: Cmax): 603 ng/mL
AUC ([2]; read-out: AUC): 7040 ng·h/mL

Compound: Cc1nc(COc2ccc(C[C@H](NC(=O)O[C@H]3CO[C@H]4OCC[C@H]43)[C@@H](CN(CC(C)C)S(=O)(=O)c3ccc4c(c3)OCO4)OC(=O)COCC(=O)NCc3ccccn3)cc2)cs1
Cmax ([1]; read-out: Cmax): 640 ng/mL
AUC ([2]; read-out: AUC): 6810 ng·h/mL

Compound: Cc1c(OC(=O)CCCCO[C@H]2O[C@H](CO)[C@@H](O)[C@H](O)[C@@H]2O)cccc1C(=O)N[C@@H](CSc1ccccc1)[C@H](O)CN1C[C@H]2CCCC[C@H]2C[C@H]1C(=O)NC(C)(C)C
half-life [4]: 50 h

Compound: Cc1cccc(C)c1OCC(=O)N[C@@H](Cc1ccccc1)[C@H](OC(=O)CCCC(=O)NCCN)C(=O)N1CSC(C)(C)[C@H]1C(=O)NC(C)(C)C
solubility [6]: 50.3 mg/mL (≈ 70.7 mM)

Compound: Cc1cccc(C)c1OCC(=O)N[C@@H](Cc1ccccc1)[C@H](OC(=O)CCC(=O)NCCN1CCCCC1)C(=O)N1CSC(C)(C)[C@H]1C(=O)NC(C)(C)C
solubility [6]: 47.8 mg/mL (≈ 62.4 mM)

Compound: CCN(CC)CC(=O)OCC(=O)O[C@H](CN(CC(C)C)S(=O)(=O)c1ccc2c(c1)OCO2)[C@H](Cc1ccc(OCc2csc(C)n2)cc1)NC(=O)O[C@H]1CO[C@H]2OCC[C@H]21
Cmax ([1]; read-out: Cmax): 318 ng/mL
AUC ([2]; read-out: AUC): 3690 ng·h/mL

Compound: Cc1cccc(C)c1OCC(=O)N[C@@H](Cc1ccccc1)[C@H](OC(=O)CCC(=O)NCc1ccncc1)C(=O)N1CSC(C)(C)[C@H]1C(=O)NC(C)(C)C
solubility [6]: 91.5 mg/mL (≈ 123 mM)

Compound: Cc1ccccc1OCC(=O)O[C@H](C(=O)N1CSC(C)(C)[C@H]1C(=O)NC(C)(C)C)[C@@H](N)Cc1ccccc1.Cl
half-life [7]: 0.347 h
half-life [8]: 2.6 min
solubility [3]: 14 mg/mL
half-life [9]: < 1 min

Compound: Cc1cccc(C)c1OCC(=O)N[C@@H](Cc1ccccc1)[C@H](OC(=O)CCC(=O)NCCN)C(=O)N1CSC(C)(C)[C@H]1C(=O)NC(C)(C)C
solubility [6]: 77.1 mg/mL (≈ 110 mM)

Compound: CC(C)(C)NC(=O)[C@@H]1CN(Cc2cccnc2)CCN1C[C@H](C[C@@H](Cc1ccccc1)C(=O)N[C@H]1c2ccccc2C[C@H]1OC(=O)CCCCO[C@H]1O[C@H](CO)[C@@H](O)[C@H](O)[C@@H]1O)OC(=O)CCCCO[C@H]1O[C@H](CO)[C@@H](O)[C@H](O)[C@@H]1O
half-life [4]: 50 h

Compound: Cc1c(OC(=O)CCCCO[C@H]2O[C@H](CO)[C@@H](O)[C@H](O)[C@@H]2O)cccc1C(=O)N[C@@H](CSc1ccccc1)[C@@H](CN1C[C@H]2CCCC[C@H]2C[C@H]1C(=O)NC(C)(C)C)OC(=O)CCCCO[C@H]1O[C@H](CO)[C@@H](O)[C@H](O)[C@@H]1O
half-life [4]: 50 h

Other lines, results leading:

Cmax ([1]; read-out: Cmax): 401 ng/mL
AUC ([2]; read-out: AUC): 4020 ng·h/mL
Compound: Cc1cccc(CN(C)CCOCC(=O)O[C@H](CN(CC(C)C)S(=O)(=O)c2ccc3c(c2)OCO3)[C@H](Cc2ccc(OCc3csc(C)n3)cc2)NC(=O)O[C@H]2CO[C@H]3OCC[C@H]32)n1

half-life [4]: 50 h
Compound: CC(C)(C)NC(=O)[C@H]1C[C@@H]2CCCC[C@@H]2CN1C[C@@H](OC(=O)CCCCO[C@H]1O[C@H](CO)[C@@H](O)[C@H](O)[C@@H]1O)[C@H](Cc1ccccc1)NC(=O)[C@H](CC(N)=O)NC(=O)c1ccc2ccccc2n1

Cmax ([1]; read-out: Cmax): 517 ng/mL
AUC ([2]; read-out: AUC): 4220 ng·h/mL
Compound: Cc1nc(COc2ccc(C[C@H](NC(=O)O[C@H]3CO[C@H]4OCC[C@H]43)[C@@H](CN(CC(C)C)S(=O)(=O)c3ccc4c(c3)OCO4)OC(=O)COC(=O)[C@@H](N)CCCCN)cc2)cs1

half-life [5]: 4.93 h
Compound: CC(C)[C@@H](N)C(=O)N[C@@H](C(=O)O[C@H](CN1C[C@H]2CCCC[C@H]2C[C@H]1C(=O)NC(C)(C)C)[C@H](Cc1ccccc1)NC(=O)[C@H](CC(N)=O)NC(=O)c1ccc2ccccc2n1)C(C)C

Cmax ([1]; read-out: Cmax): 460 ng/mL
AUC ([2]; read-out: AUC): > 5000 ng·h/mL
Compound: Cc1nc(COc2ccc(C[C@H](NC(=O)O[C@H]3CO[C@H]4OCC[C@H]43)[C@@H](CN(CC(C)C)S(=O)(=O)c3ccc4c(c3)OCO4)OC(=O)CONC(=N)N)cc2)cs1

solubility [3]: 0.023 mg/mL (≈ 0.0436 mM)
Compound: Cc1cccc(C)c1OCC(=O)N[C@@H](Cc1ccccc1)[C@H](O)C(=O)N1CSC[C@H]1C(=O)NC(C)(C)C

solubility [6]: 53.2 mg/mL (≈ 69.3 mM)
Compound: Cc1cccc(C)c1OCC(=O)N[C@@H](Cc1ccccc1)[C@H](OC(=O)CCC(=O)NCCN1CCOCC1)C(=O)N1CSC(C)(C)[C@H]1C(=O)NC(C)(C)C

half-life [7]: 0.353 h
half-life [8]: 2.9 min
solubility [3]: 32 mg/mL
half-life [9]: < 1 min
Compound: CC(C)(C)NC(=O)[C@@H]1CSCN1C(=O)[C@@H](OC(=O)COc1ccccc1)[C@@H](N)Cc1ccccc1.Cl

Cmax ([1]; read-out: Cmax): 356 ng/mL
AUC ([2]; read-out: AUC): 5600 ng·h/mL
Compound: CNCC(=O)OCC(=O)O[C@H](CN(CC(C)C)S(=O)(=O)c1ccc2c(c1)OCO2)[C@H](Cc1ccc(OCc2csc(C)n2)cc1)NC(=O)O[C@H]1CO[C@H]2OCC[C@H]21
